pEC50: −log10 of the molar value.
Experiments:
PKL = PKL (Homo sapiens, UniProt P30613); assay: Recombinant PKL activity assay (Kinase-Glo MAX); assay type: biochemical; parameters: co-crystallisation of full-length PKL (including the B-domain); 8xHis (TEV-cleavable) (N, cleaved yes); made in house; host or cells: E. coli T7 Express (NEB), pExp-NHis plasmid
Procedure: The two isozymes were incubated with increasing concentrations of compounds before the addition of substrates PEP and adenosine diphosphate (ADP), and the reactions were monitored using a Kinase‐Glo MAX assay.
Figure S2. […] The reactions were terminated by the addition of Kinase Glo-MAX reagent after 10 min, and the luminescence from each reaction was quantified using a plate reader. The activity values are expressed as a percentage of PK activity of the DMSO control. The potencies were calculated by best fit of the Hill equation to the luminescence data.^[2] (A) PKL titrations. (B) PKM2 titrations. Error bars represent the ±SE of replicates (n = 3).
The reaction mixture contained 0.2 mM ADP, 0.1 mM PEP, 5 nM PKL, 1% DMSO, and test compounds at concentrations ranging from 0 to 1 mM across 12 titration points. Prior to substrate addition, PKL and test compounds were pre-incubated for 15 minutes.
After the reaction, 5 µL of Kinase-Glo Max reagent was added to each well. […] For each data set, luminescence from the DMSO control was set as 100% activity, and luminescence from the protein blank (no PKL) as 0% activity. Percentage activity (E%) was calculated using the equation: […]
Titration data was fitted to the Hill equation in Origin to determine EC₅₀ values.

PKM2 = PKM2 (Homo sapiens, UniProt P14618); assay: Recombinant PKM2 activity assay (Kinase-Glo MAX); assay type: biochemical; parameters: made in house
Procedure: As these compounds were binding to a known allosteric site on PK, the effects of ligands I–IV on the enzymatic activities of PKL and PKM2 were determined (Figure S2). The two isozymes were incubated with increasing concentrations of compounds before the addition of substrates PEP and adenosine diphosphate (ADP), and the reactions were monitored using a Kinase‐Glo MAX assay.
Figure S2. Effects of ligands I-IV on recombinant PK activities. PKL or PKM2 (10 nM) were pre-incubated with the compounds (0-100 µM) for 15 min following the addition of PEP (0.1 mM) and ADP (0.2 mM). The reactions were terminated by the addition of Kinase Glo-MAX reagent after 10 min, and the luminescence from each reaction was quantified using a plate reader. The activity values are expressed as a percentage of PK activity of the DMSO control. The potencies were calculated by best fit of the Hill equation to the luminescence data.^[2] (A) PKL titrations. (B) PKM2 titrations. Error bars represent the ±SE of replicates (n = 3).

HEK293 cells = assay: Live-cell uptake by confocal microscopy; assay type: cell-based; settings: live HEK293, 1 µM
Procedure: To investigate the cellular permeability of IV, we employed confocal microscopy to monitor the uptake of the tracer in live HEK293 cells over time. The tracer was added to live cells at a final concentration of 1 µM, and real‐time fluorescence intensity was recorded immediately after addition. A rapid increase in fluorescence was observed, reaching a stable plateau approximately 4 min after addition, indicating fast cellular uptake and […] (Figure 3a and Video S1).
Fluorescence intensity was then continuously monitored for 60 min. To assess potential fluorophore degradation, corrected total cell fluorescence (CTCF) was calculated at each time point (Figure S6). Fluorescence values from regions of interest (ROIs) were integrated and normalized cell area and background signals in the absence of tracer.
To attach HEK293 cells to the bottom of 24-well imaging plates (Ibidi 82427), a Cell-Tak adhesive mixture (Corning, 354240) was used. It was prepared with a mixture of sodium bicarbonate (75 g/L), sodium hydroxide (40 g/L) and Cell-Tak (2.03 g/L) at a volume ratio of 291:5:4. For each well, 500 μL of Cell-Tak mix was added and incubated at room temperature for 30 min. […] For analysing intracellular fluorescence and distribution of IV within HEK293 cells, Z-stack images (22 images) were acquired after 5, 15, 30 and 60 min of incubation across a physical depth of ~22 μm. […]

Chain of PKM2 (P14618 whole entry): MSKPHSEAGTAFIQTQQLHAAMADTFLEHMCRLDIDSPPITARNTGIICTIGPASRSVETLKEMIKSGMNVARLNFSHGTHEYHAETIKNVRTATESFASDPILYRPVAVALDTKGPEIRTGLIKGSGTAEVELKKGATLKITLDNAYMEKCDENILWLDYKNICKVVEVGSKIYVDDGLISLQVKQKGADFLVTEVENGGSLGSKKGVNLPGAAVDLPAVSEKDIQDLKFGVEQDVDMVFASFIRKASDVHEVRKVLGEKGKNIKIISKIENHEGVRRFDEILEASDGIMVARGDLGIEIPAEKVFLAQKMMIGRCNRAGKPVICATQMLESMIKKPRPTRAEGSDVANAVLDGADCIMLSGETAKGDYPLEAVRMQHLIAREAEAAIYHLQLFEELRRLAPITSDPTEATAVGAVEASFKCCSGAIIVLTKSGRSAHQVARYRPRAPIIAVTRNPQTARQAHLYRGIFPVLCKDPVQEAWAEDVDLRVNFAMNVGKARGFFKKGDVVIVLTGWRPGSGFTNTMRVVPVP
Chain of PKL (P30613 1-543 isoform P30613-2): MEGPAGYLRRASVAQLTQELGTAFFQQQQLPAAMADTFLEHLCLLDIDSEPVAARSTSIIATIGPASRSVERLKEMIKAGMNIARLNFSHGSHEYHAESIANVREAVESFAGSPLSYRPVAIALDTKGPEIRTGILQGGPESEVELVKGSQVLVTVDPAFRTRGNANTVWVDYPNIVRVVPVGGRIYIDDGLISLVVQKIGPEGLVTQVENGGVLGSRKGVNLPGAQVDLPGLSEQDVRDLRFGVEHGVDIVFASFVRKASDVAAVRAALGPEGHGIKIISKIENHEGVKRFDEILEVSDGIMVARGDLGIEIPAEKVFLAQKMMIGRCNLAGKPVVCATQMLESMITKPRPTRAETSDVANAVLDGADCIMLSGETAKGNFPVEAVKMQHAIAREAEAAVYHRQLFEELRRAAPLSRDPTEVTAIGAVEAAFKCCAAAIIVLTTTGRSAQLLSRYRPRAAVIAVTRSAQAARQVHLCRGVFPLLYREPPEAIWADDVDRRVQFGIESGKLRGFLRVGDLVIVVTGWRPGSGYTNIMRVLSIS

## CN(C)c1ccc(S(=O)(=O)c2ccc3c(=O)n(Cc4cc[nH]n4)ncc3c2)c2nonc12 [Compound IV, 2-((1H-Pyrazol-3-yl)methyl)-6-((7-(dimethylamino)benzo[c][1,2,5]oxadiazol-4-yl)sulfonyl)phthalazin-1(2H)-one]
PKL; recombinant PKL 10 nM, 15 min pre-incubation, PEP 0.1 mM, ADP 0.2 mM
  pEC50: 7.89
PKL; recombinant PKL, above 100% activation, below 100% inhibition
  PKL E max: 169 % vehicle
PKM2; recombinant PKM2
  PKM2 E max: 449 % of vehicle
PKM2; recombinant PKM2 10 nM, 15 min pre-incubation, PEP 0.1 mM, ADP 0.2 mM
  pEC50: 7.77
HEK293 cells
  time to stable fluorescence plateau after addition: approximately 4 min

Reference: article PMC12518693, “Potent Fluorescent Probe for Target‐Engagement Studies of Allosteric Pyruvate Kinase Modulators” (Angewandte Chemie (International Ed. in English), 2025)
